# Measured values from US8563556B2, “Crystalline forms and two solvated forms of 4-amino-5-fluoro-3-[5-(4-methylpiperazin-1-yl)-1H-benzimidazol-2-yl]quinolin-2(1H)-one lactic acid salts” (Novartis AG, priority 2008, dated 2013).
# Structures can show the parent of a compound that is named as a salt. Where two headings read alike, the source gives them in different places.
# Tests used:
# [1] = Heat of solution in water at 25° C.; assay type: physicochemical
# [2] = Solubility of crystalline forms in solvents; assay type: physicochemical; conditions: for Solubility, Butanol: solvent butanol
SMILES,Heat of solution in water (endothermic) [1] [kcal/mol],"Solubility, Acetone ([2]; solvent acetone, temperature not given) [µg/mL]","Solubility, Butanol ([2]; temperature not given) [µg/mL]","Solubility, Ethanol ([2]; solvent ethanol, temperature not given) [µg/mL]","Solubility, Isopropanol ([2]; solvent isopropanol, temperature not given) [µg/mL]","Solubility, Water ([2]; solvent water, temperature not given) [µg/mL]",Heat of solution in water (endothermic) ([1]; listed as Form B) [kcal/mol],"solubility ([2]; acetone, organic solvent or mixture, solvent acetone, temperature not given, read-out: Solubility, Acetone) [µg/mL]","solubility ([2]; ethanol, organic solvent or mixture, solvent ethanol, temperature not given, read-out: Solubility, Ethanol) [µg/mL]","solubility ([2]; isopropanol, organic solvent or mixture, solvent isopropanol, temperature not given, read-out: Solubility, Isopropanol) [µg/mL]","solubility ([2]; water, solvent water, temperature not given, read-out: Solubility, Water) [µg/mL]","solubility ([2]; 0.1 N HCl, 25 °C, simulated gastric fluid, HCl 0.1N, 25° C., read-out: Solubility at 25° C., HCl 0.1N) [µg/mL]","solubility ([2]; ethanol, 25 °C, organic solvent or mixture, ethanol, 25° C., read-out: Solubility at 25° C., ethanol) [µg/mL]","Solubility at 25° C., water ([2]; water, 25° C.) [µg/mL]"
"CN1CCN(c2ccc3nc(-c4c(N)c5c(F)cccc5[nH]c4=O)[nH]c3c2)CC1 [Anhydrous form A, 4-amino-5-fluoro-3-[5-(4-methylpiperazin-1-yl)-1H-benzimidazol-2-yl]quinolin-2(1H)-one lactic acid salt]",1.1,840,950,840,160,107000,,,,,,,,
"CN1CCN(c2ccc3nc(-c4c(N)c5c(F)cccc5[nH]c4=O)[nH]c3c2)CC1 [Anhydrous form II, 4-Amino-5-fluoro-3-[5-(4-methylpiperazin-1-yl)-1H-benzimidazol-2-yl]quinolin-2(1H)-one lactate anhydrous form II]",,,340,,,,2.2,510,710,80,68000,,,
"CN1CCN(c2ccc3nc(-c4c(N)c5c(F)cccc5[nH]c4=O)[nH]c3c2)CC1 [hemi-pentahydrate, 4-Amino-5-fluoro-3-[5-(4-methylpiperazin-1-yl)-1H-benzimidazol-2-yl]quinolin-2(1H)-one lactate hemi-pentahydrate]",7.17,,,,,,,,,,,55000,2000,6200
